Measured values published in ChEMBL document CHEMBL1142755, “A macromolecular prodrug of doxorubicin conjugated to a biodegradable cyclotriphosphazene bearing a tetrapeptide” (2005).
Where a name gives a salt, the structure may show the parent alone.

Test system: L1210
Test: In vitro cytotoxicity against Leukemia L1210 cell line
Assay type: functional
Conditions: Mus musculus

| Compound | ED50 [nM] | EC50 (read-out: ED50 (the source's name)) [nM] |
| --- | --- | --- |
| CISPLATIN | 1000 | – |
| COc1cccc2c1C(=O)c1c(O)c3c(c(O)c1C2=O)C[C@@](O)(C(=O)CO)C[C@@H]3O[C@H]1C[C@H](N)[C@H](O)[C@H](C)O1 [DOXORUBICIN HYDROCHLORIDE] | – | 100 |
